Experimental data from patent EP0339358B1, “Pyrazolopyridine type mevalonolactones” (NISSAN CHEMICAL INDUSTRIES LTD., priority 1988, dated 1989).

Key:
cholesterol biosynthesis = experiment: Test C: Inhibition of cholesterol biosynthesis in vivo; set-up: species or system Male Sprague-Dawley rats; details: oral administration of 0.2 mg/kg; relative to the measured value of the control group; serum nonsaponifiable lipids
Method: Male Sprague-Dawley rats weighing about 150 g were fed normal Purina chow diet and water ad libitum, and exposed to 12 hours light/12 hours dark lighting pattern (2:00 PM - 2:00 AM dark) prior to use for in vivo inhibition test of cholesterol biosynthesis. Animals were separated groups consisting of five rats as to be average mean body weight in each groups. Test compounds at dosage of 0.02-0.2 mg/kg body weight (0.4 ml/100 g body weight), were dissolved in water or suspended in 0.5% methyl cellulose and orally administered at 2-3 hours before mid-dark (8:00 PM), while cholesterol biosynthesis reaches to maximum in rats. As control, rats were orally administered only water or vehicle. At 90 minutes after sample administration, rats were injected intraperitoneally with 10 »Ci of [2-¹⁴C]sodium acetate at volume of 0.2 ml per one. 2 Hours later, blood samples were obtained and serum were separated immediately. Total lipids were extracted according to the method of Folch et al. and saponified with EtOH-KOH. Nonsaponifiable lipids were extracted with petroleum ether and radio activity incorporated into nonsaponifiable lipids was counted.
Inhibitory activity was indicated as percent decrease of counts in testing groups (DPM/2 ml serum/2 hours) from that in control group.

Test D: Acute toxicity = details: mouse, in vivo, po, 1000 mg/kg; orally administered 1,000 mg/kg, 0.5% CMC suspension; mortality after seven days; group of three mice
Method: A 0.5% CMC suspension of a test compound was orally administered to ICR male mice (group of three mice). The acute toxicity was determined based on the mortality after seven days. With compound I-5-1, I-5-2, I-5-4, I-5-7, I-5-10, I-5-11, I-5-12, I-5-14 and I-5-15 of the present invention, the mortality was 0% even when they were orally administered in an amount of 1,000 mg/kg, respectively.

Hep G2 cells = target: T1, Hep G2 cells (Homo sapiens, UniProt P04035); experiment: Test B-1: Inhibition of cholesterol biosynthesis in culture cells ([2-14C]sodium acetate added at 0 hr after addition of compounds); assay type: cell-based; details: HepG2, concentration of 1.0 x 10⁻⁷ mol/ℓ, read-out: Inhibitory activities %
T1 sequence (P04035 1-888): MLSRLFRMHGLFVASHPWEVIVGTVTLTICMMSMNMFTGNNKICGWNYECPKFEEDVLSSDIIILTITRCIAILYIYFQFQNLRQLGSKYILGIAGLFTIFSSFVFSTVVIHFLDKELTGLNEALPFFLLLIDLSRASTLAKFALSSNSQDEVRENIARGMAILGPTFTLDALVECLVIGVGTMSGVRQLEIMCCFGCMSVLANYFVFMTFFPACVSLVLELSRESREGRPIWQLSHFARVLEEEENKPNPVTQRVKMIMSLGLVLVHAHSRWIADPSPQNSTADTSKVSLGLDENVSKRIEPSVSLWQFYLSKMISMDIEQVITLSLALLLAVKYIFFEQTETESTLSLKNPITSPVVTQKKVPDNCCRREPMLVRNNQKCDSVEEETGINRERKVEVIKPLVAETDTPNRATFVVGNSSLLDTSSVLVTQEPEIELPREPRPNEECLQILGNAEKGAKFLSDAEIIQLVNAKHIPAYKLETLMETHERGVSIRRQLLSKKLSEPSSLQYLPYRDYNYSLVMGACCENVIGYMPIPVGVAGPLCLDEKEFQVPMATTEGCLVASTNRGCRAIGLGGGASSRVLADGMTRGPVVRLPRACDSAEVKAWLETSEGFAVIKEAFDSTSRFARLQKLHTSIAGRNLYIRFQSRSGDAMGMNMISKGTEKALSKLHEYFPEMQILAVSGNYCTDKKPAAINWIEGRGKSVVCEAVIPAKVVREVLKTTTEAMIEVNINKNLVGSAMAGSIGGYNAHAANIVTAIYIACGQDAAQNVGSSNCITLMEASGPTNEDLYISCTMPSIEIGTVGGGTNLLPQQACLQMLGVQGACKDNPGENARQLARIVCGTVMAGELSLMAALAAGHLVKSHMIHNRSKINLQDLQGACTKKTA
Method: Hep G2 cells at over 5th passage were seeded to 12 well plates and incubated with Dulbecco's modified Eagle (DME) medium containing 10% of fetal bovine serum (FBS) at 37°C, 5% CO₂ until cells were confluent for about 7 days. Cells were exposed to the DME medium contaiing 5% of lipoprotein deficient serum (LpDS) prepared by ultracentrifugation method for over 24 hours. Medium was changed to 0.5 ml of fresh 5% LpDS containing DME before assay and 10 »l of test compound solution dissolved in water or DMSO were added. 0.2 »Ci of [2-¹⁴C]sodium acetate (20 »l) was added at 0 hr(B-1) or 4 hrs(B-2) after addition of compounds. After 4 hrs further incubation with [2-¹⁴C]sodium acetate, medium was removed and cells were washed with phosphate buffered saline (PBS) chilled at 4°C. Cells were scraped with rubber policeman and collected to tubes with PBS and digested with 0.2 ml of 0.5 N KOH at 37°C. Aliquot of digestion was used for protein analysis and remaining was saponified with 1 ml of 15% EtOH-KOH at 75°C for 1 hour. Nonsaponifiable lipids were extracted with petroleum ether and ¹⁴C radioactivity was counted. Counts were revised by cell protein and indicated with DPM/mg protein. Inhibitory activity of compounds was indicated with IC50.

| inhibition at 0.1 µM (Hep G2 cells) | Structure (SMILES) | percent decrease of counts (cholesterol biosynthesis) | mortality at 168 h (Test D: Acute toxicity) |
| --- | --- | --- | --- |
| – | CCC(C)C(=O)OC1CC(O)C=C2C=CC(C)C(CCC(O)CC(O)CC(=O)O)C21 (stereo not shown) [CS-514, reference compound] | 39% | – |
| – | Cc1nn(C)c2nc(C(C)C)c(/C=C/C(O)CC(O)CC(=O)O)c(-c3ccc(F)cc3)c12 (stereo not shown) [Compound I-5-1, Sodium (E)-7-[4′-(4˝-fluorophenyl)-1′,3′-dimethyl-6′-(1˝-methylethyl)pyrazolo[3,4-b]pyridin-5#MIN#-yl]-3,5-dihydroxyhept-6-enoate] | – | 0% |
| – | Cc1nn(-c2ccccc2)c2nc(C(C)C)c(/C=C/C(O)CC(O)CC(=O)O)c(-c3ccc(F)cc3)c12 (stereo not shown) [Compound I-5-2] | – | 0% |
| 36.3% | Cc1c2c(-c3ccc(F)cc3)c(/C=C/C(O)CC(O)CC(=O)O)c(C(C)C)nc2nn1-c1ccccc1 (stereo not shown) [Compound I-5-3] | – | – |
| – | CC(C)c1nc2c(c(-c3ccccc3)nn2C)c(-c2ccc(F)cc2)c1/C=C/C(O)CC(O)CC(=O)O (stereo not shown) [Compound I-5-4] | 53% | 0% |
| 78.2% | Cc1nn(C)c2nc(C3CC3)c(/C=C/C(O)CC(O)CC(=O)O)c(-c3ccc(F)cc3)c12 (stereo not shown) [Compound I-5-5] | 49% | – |
| 53.3% | CC(C)c1nc2c(cnn2-c2ccccc2)c(-c2ccc(F)cc2)c1/C=C/C(O)CC(O)CC(=O)O (stereo not shown) [Compound I-5-6] | – | – |
| – | Cc1nn(C(C)(C)C)c2nc(C(C)C)c(/C=C/C(O)CC(O)CC(=O)O)c(-c3ccc(F)cc3)c12 (stereo not shown) [Compound I-5-7] | 52% | 0% |
| 55.3% | CC(C)c1nc2c(c(C3CC3)nn2C)c(-c2ccc(F)cc2)c1/C=C/C(O)CC(O)CC(=O)O (stereo not shown) [Compound I-5-9] | – | – |
| – | Cc1nn(Cc2ccccc2)c2nc(C(C)C)c(/C=C/C(O)CC(O)CC(=O)O)c(-c3ccc(F)cc3)c12 (stereo not shown) [Compound I-5-10] | – | 0% |
| 55.5% | COc1ccc(-n2nc(C)c3c(-c4ccc(F)cc4)c(/C=C/C(O)CC(O)CC(=O)O)c(C(C)C)nc32)cc1 (stereo not shown) [Compound I-5-13] | – | – |
| – | Cn1nc(-c2ccccc2)c2c(-c3ccc(F)cc3)c(/C=C/C(O)CC(O)CC(=O)O)c(C3CC3)nc21 (stereo not shown) [Compound I-5-14] | – | 0% |
| – | Cc1nn(C(C)(C)C)c2nc(C3CC3)c(/C=C/C(O)CC(O)CC(=O)O)c(-c3ccc(F)cc3)c12 (stereo not shown) [Compound I-5-15] | – | 0% |
| 49% | CC(C)(C)n1nc(C2CC2)c2c(-c3ccc(F)cc3)c(/C=C/C(O)CC(O)CC(=O)O)c(C3CC3)nc21 (stereo not shown) [Compound I-5-16] | – | – |
| 36% | CC(C)(C)n1nc(-c2ccccc2)c2c(-c3ccc(F)cc3)c(/C=C/C(O)CC(O)CC(=O)O)c(C3CC3)nc21 (stereo not shown) [Compound I-5-17] | – | – |

| Structure (SMILES) | inhibition at 0.1 µM (Hep G2 cells) | percent decrease of counts (cholesterol biosynthesis) | mortality at 168 h (Test D: Acute toxicity) |
| --- | --- | --- | --- |
| CC(C)c1nc2c(c(-c3ccc(Cl)cc3)nn2C)c(-c2ccc(F)cc2)c1/C=C/C(O)CC(O)CC(=O)O (stereo not shown) [Compound I-5-11] | 58.8% | – | 0% |
| CC(C)c1nc2c(c(C3CC3)nn2-c2ccccc2)c(-c2ccc(F)cc2)c1/C=C/C(O)CC(O)CC(=O)O (stereo not shown) [Compound I-5-12] | 47.3% | – | 0% |
